According to patent US20230357242A1, “COMPOUND AS AKT KINASE INHIBITOR” (CHIA TAI TIANQING PHARMACEUTICAL GROUP CO., LTD., priority 2020, published 2023):

Assays:
[1] = target: T1, AKT1 (S473) (Homo sapiens, UniProt P31749); experiment: Inhibitory effect on phosphorylation of LNcap cells AKT1 (S473); type: cell-based; settings: 1 h incubation
T1 construct: endogenous in cells; host or cells: LNcap cells
Experimental: LNcap cells AKT1 (S473) growing at log phase were taken, digested with 1 mL of pancreatin for 3 min, and added with 4 mL of complete medium to terminate digestion. The cells were added to a centrifuge tube. 20 μL of cells were taken and counted, the required number of cells (mL) was taken and centrifuged at 1200 rpm for 5 min, and a plating medium (2% FBS+phenol-free red 1640 base medium+1% sodium pyruvate+1% glutamine) was added to adjust the cell density to about 1×10E6 cells/mL. The cells were plated (96 wells) at the above cell density (100 μL/well), and cultured in a cell incubator at 37° C., 5% CO2 overnight; the next day, according to the plate distribution, the corresponding compound was sprayed using a nanoliter pipettor and incubated for 1 h at 37° C. in a cell incubator containing 5% CO2; the supernatant was discarded, and the plate was added with 40 μL of lysis buffer (1×) containing blocking buffer and incubated by shaking at room temperature for 30 min. After the mixture was mixed, 16 μL of lysate was transferred to another 384-well small-volume white plate. The plate was added with 4 μL of pre-mixed antibody (v/v) in assay buffer, covered, centrifuged to mix well, and incubated overnight at room temperature. The 665 nm/620 nm signal value was detected using a PE Envision multi-functional microplate reader, and IC50 was calculated by four-parameter fitting.

[2] = system: AN3CA human endometrial cancer cells; experiment: Pharmacodynamics in subcutaneous xenograft tumor nude mouse model of AN3CA human endometrial cancer cells; type: in vivo, BALB/C nude mice; settings: for in vivo tumor inhibition effect (in words) / Relative tumor volume (mean ± SD) / Tumor volume (mm^3) (mean ± SD): AN3CA xenograft; for in vivo tumor inhibition effect (in words): 20 mg/kg i.g. qd; for Relative tumor volume (mean ± SD) / Tumor volume (mm^3) (mean ± SD) / Weight change rate (%) (mean ± SD) / TGI (%) / T/C (%): day 14, 20 mg/kg i.g. qd 14 d; for Weight change rate (%) (mean ± SD): body weight; for TGI (%): by tumor weight, ** p < 0.01 vs control; for T/C (%): relative tumor proliferation rate
Experimental: SPF-grade female BALB/C nude mice (from Changzhou Cavens Laboratory Animal Ltd.) were inoculated subcutaneously at the right side armpit with 5×10^6 AN3CA cells (sourec: Nanjing Cobioer Biosciences Co., Ltd.).
The day of grouping was determined as do, and the intragastric administration was started on the grouping day, and the administration volume was 10 mL/kg. The solvent was: D5W (5% glucose solution). The tumor volume was measured 2-3 times a week, meanwhile, the mice were weighed and the data were recorded; the general behavior of the mice was observed and recorded every day. After the experiment was completed, the tumors were removed, weighed and photographed.
Calculation formula for tumor volume: Tumor volume (mm^3)=½×(a×b^2) (where a represents long diameter and b represents short diameter).
Relative tumor proliferation rate (T/C %) refers to the percentage of the relative tumor volume of the treatment and control groups at a certain time point. The calculation formula is as follows: T/C %=TRTV/CRTV×100% (TRTv: mean relative tumor volume (RTV) for treatment group; CRTV: mean RTV for vehicle control group; RTV=TVt/TV0, where TV0 is the tumor volume at grouping, TVt is the tumor volume after treatment).
The calculation formula for weight change rate (WCR) (%) is: WCR=(Wtt−Wt0)/Wt0×100%, where Wt0 is the body weight of the animal at grouping (i.e., d0), Wtt is the body weight of the animal at each measurement.
All experimental results are expressed as mean±SD (mean±standard deviation). The relative tumor volume of the treatment group was compared with that of the control group for any significant difference by T tests, wherein p<0.01 indicates a very significant difference.

T1 sequence (P31749 whole entry): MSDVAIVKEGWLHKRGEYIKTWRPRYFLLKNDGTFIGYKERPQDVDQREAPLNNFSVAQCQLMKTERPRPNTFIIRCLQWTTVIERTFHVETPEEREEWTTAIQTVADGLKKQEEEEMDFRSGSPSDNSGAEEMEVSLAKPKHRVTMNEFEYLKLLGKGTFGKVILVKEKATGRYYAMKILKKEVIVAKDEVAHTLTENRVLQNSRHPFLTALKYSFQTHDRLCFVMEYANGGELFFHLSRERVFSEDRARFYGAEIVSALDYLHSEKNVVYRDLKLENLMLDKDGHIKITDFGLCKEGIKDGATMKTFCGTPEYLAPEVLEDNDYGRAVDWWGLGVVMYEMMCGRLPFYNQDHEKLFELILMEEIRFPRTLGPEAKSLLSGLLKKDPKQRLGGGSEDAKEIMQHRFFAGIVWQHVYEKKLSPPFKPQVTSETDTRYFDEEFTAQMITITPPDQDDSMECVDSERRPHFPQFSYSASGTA

Row | IC50 [1] [nM] | SMILES | in vivo tumor inhibition effect (in words) [2] | Relative tumor volume (mean ± SD) [2] | Tumor volume (mm^3) (mean ± SD) [2] | Weight change rate (%) (mean ± SD) [2] | TGI (%) [2] [%**] | T/C (%) [2] [%]
1 | 28 | CC(=O)N1CC2(C1)CN(c1cccc(-c3ccc4nc(-c5cccnc5N)n(-c5ccc(C6(N)CCC6)cc5)c4n3)c1F)C2 [Compound 28] | strong in vivo tumor inhibition effects | 10.5 ± 3.4 | 1267 ± 249 | 4.9 ± 2.7 | 53.2 | 44.3
2 | 22 | Nc1ncccc1-c1nc2ccc(-c3cccc(N4CCC(N5CCCC5=O)CC4)c3F)nc2n1-c1ccc(C2(N)CCC2)cc1 [Compound 30] | strong in vivo tumor inhibition effects | 9.7 ± 2.2 | 1242 ± 354 | 2.3 ± 3.5 | 58.4 | 40.9
